Test systems include A498; CAKI-1; HCT-116; HCT-15; HT-29; LOX IMVI; LXFL 529; Malme-3M; RXF 393; SF-295; SF-539; SK-MEL-2; SK-OV-3; SNB-19; SR.
Common to all, as to assay: growth of human tumour cells (NCI), 48 h

The structures appear in SMILES notation.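 How tested: cells in 96-well plates exposed to compound for 48 hours at five concentrations. GI50: concentration for 50% inhibition of growth.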 The source made the active and inactive calls. No stated cut-off is given here; in the data, active = GI50 up to about 1.1 µM and inactive = higher.

On to `COc1cccc2nc3cc(C)c(C)cc3nc12`, for which the GI50 in the assay on A498 was > 100 µM (inactive); in the assay with CAKI-1, > 100 µM (inactive); in the assay with HCT-116, > 100 µM (inactive); with HCT-15 it was above 100 µM; with HT-29, > 100 µM (inactive); in the assay with LOX IMVI, 96.8 µM (inactive). Moreover, the GI50 with LXFL 529, in the assay with Malme-3M, in the assay with RXF 393, in the assay with SF-295, with SF-539 and with SK-MEL-2 was > 100 µM (inactive) each time. Further, the GI50 with SK-OV-3 is 78.3 µM (inactive); in the assay on SNB-19 it was > 100 µM (inactive); in the assay on SR it was > 100 µM (inactive).
`O=C(O)CCSC(=S)Nc1cccc(F)c1`: the GI50 with A498 is 30.4 µM (inactive); with CAKI-1, 77.3 µM (inactive); in the assay on HCT-116, 97.3 µM (inactive); in the assay on HCT-15, 27 µM; in the assay with HT-29, 80 µM (inactive); in the assay on LOX IMVI it was 13.9 µM (inactive). In addition, the GI50 is 62.2 µM (inactive) in the assay with LXFL 529; 48.6 µM (inactive) with Malme-3M; 30.5 µM (inactive) in the assay with RXF 393; 28.7 µM (inactive) in the assay on SF-295; 26.1 µM (inactive) in the assay with SF-539; > 100 µM (inactive) in the assay with SK-OV-3. The GI50 in the assay on SNB-19 is 45.2 µM (inactive); in the assay with SR, 39.2 µM (inactive).
For `CCNC(=O)/C=C/CCC#Cc1ccc(-c2ccc(-c3cccs3)s2)s1`, the GI50 in the assay on CAKI-1 was > 100 µM (inactive); in the assay on HCT-116 it was > 100 µM (inactive); in the assay on HCT-15, above 100 µM; in the assay on HT-29, > 100 µM (inactive); in the assay with LOX IMVI, > 100 µM (inactive); in the assay with LXFL 529 it was > 100 µM (inactive). Moreover, the GI50 was 3.52 µM (inactive) in the assay with Malme-3M; > 100 µM (inactive) with RXF 393; > 100 µM (inactive) in the assay with SF-295; > 100 µM (inactive) with SF-539; > 100 µM (inactive) with SK-MEL-2; > 100 µM (inactive) in the assay with SK-OV-3. For the same compound, the GI50 in the assay on SNB-19 and in the assay on SR was > 100 µM (inactive) throughout.
With `CC1(CO)C(=O)OC12CCCCC2` (stereo not drawn), the GI50 in the assay with A498 was 44.4 µM (inactive); in the assay on CAKI-1, > 100 µM (inactive); in the assay with HCT-116, > 100 µM (inactive); with HT-29, > 100 µM (inactive); in the assay with LOX IMVI, > 100 µM (inactive); in the assay on LXFL 529, > 100 µM (inactive). Also, the GI50 with Malme-3M, in the assay on SF-295, in the assay with SF-539, in the assay on SK-MEL-2, in the assay on SK-OV-3 and in the assay with SNB-19 was > 100 µM (inactive) each time. Moreover, the GI50 in the assay on SR was 84.9 µM (inactive).
Turning to `COc1ccc(C(=O)Nc2ccn(CCOC(=O)c3ccc(OC)cc3)c(=O)n2)cc1`, the GI50 with A498 was 93.3 µM (inactive); with CAKI-1, > 100 µM (inactive); with HCT-116 it was > 100 µM (inactive); in the assay on HCT-15, above 100 µM; with HT-29 it was > 100 µM (inactive); in the assay with LOX IMVI it was > 100 µM (inactive). Also, the GI50 in the assay with LXFL 529 was > 100 µM (inactive); in the assay on Malme-3M, > 100 µM (inactive); with RXF 393, 20.1 µM (inactive); in the assay on SF-295, 58.9 µM (inactive); in the assay on SF-539, > 100 µM (inactive); in the assay on SK-MEL-2, 47.3 µM (inactive). Also, the GI50 in the assay on SK-OV-3 and in the assay with SR was > 100 µM (inactive) in each case.
As to `CSc1nc2c(nc(N)n2C2OC(CO)C(O)C(O)C2O)c(=O)n1C` (stereo not drawn), the GI50 with A498, with CAKI-1, with HCT-116, with HT-29, in the assay with LOX IMVI and in the assay on LXFL 529 was > 100 µM (inactive) throughout. Besides, the GI50 with Malme-3M, with RXF 393, with SF-295, in the assay on SF-539, in the assay on SK-OV-3 and in the assay with SNB-19 was > 100 µM (inactive) in each case. In addition, the GI50 with SR was > 100 µM (inactive).

The record behind these values is ChEMBL document CHEMBL1201862, “PubChem BioAssay data set” (2004).
